3 compounds from patent US8658791B2, “2-substituted-6-amino-5-alkyl, alkenyl or alkynyl-4-pyrimidinecarboxylic acids and 6-substituted-4-amino-3-alkyl, alkenyl or alkynyl picolinic acids and their use as herbicides” (Dow AgroSciences, LLC, priority 2007, dated 2014) can be followed below.

For data set [1], the system named is barnyardgrass (Echinochloa crus-galli). In words: General postemergence herbicidal activity, ECHCG. Format: in vivo. The conditions noted are these: Echinochloa crus-galli, post-emergence, 336 h, postemergence spray, visual score after 14 days, 0 = no injury, 100 = complete kill, read-out: Post-emergent Weed Control ECHCG. The essentials:
(§1)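 Greenhouse plants at first or second true leaf stage sprayed postemergence at 187 L/ha with compound in acetone/DMSO/water mixture with crop oil concentrate and surfactant. Rates ran from a high rate through 1/2X to 1/16X. Visual injury versus untreated plants scored 0–100% after 14 days.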

The subject of data set [2] is wild poinsettia (Euphorbia heterophylla). In words: General postemergence herbicidal activity, EPHHL. Format: in vivo. The conditions noted are these: Euphorbia heterophylla, post-emergence, 336 h, postemergence spray, visual score after 14 days, 0 = no injury, 100 = complete kill, read-out: Post-emergent Weed Control EPHHL. The essentials: as §1
In data set [3] the test system is velvetleaf (Abutilon theophrasti). In words: General postemergence herbicidal activity, ABUTH. The conditions noted are these: Abutilon theophrasti, post-emergence, 336 h, postemergence spray, visual score after 14 days, 0 = no injury, 100 = complete kill, read-out: Post-emergent Weed Control ABUTH. Format: in vivo. Put shortly:
as §1

Data set [4] concerns lambsquarter (Chenopodium album). In words: General preemergence herbicidal activity, CHEAL. Format: in vivo. The conditions noted are these: 140 g ai/ha, applied to soil surface, visual score after 20-22 days, 0 = no injury, 100 = complete kill or no emergence, read-out: Pre-emergent Weed Control CHEAL. The text has this:
(§2) Seeds of the desired test plant species were planted in a soil matrix prepared by mixing a loam soil (43 percent silt, 19 percent clay, and 38 percent sand, with a pH of about 8.1 and an organic matter content of about 1.5 percent) and sand in a 70 to 30 ratio. The soil matrix was contained in plastic pots with a surface area of 127 square centimeters. When required to ensure good germination and healthy plants, a fungicide treatment and/or other chemical or physical treatment was applied. A weighed amount, determined by the highest rate to be tested, of each test compound was placed in a 25 mL glass vial and was dissolved in 6 mL of a 97:3 v/v (volume/volume) mixture of acetone and DMSO to obtain concentrated stock solutions. […] The stock solutions obtained were diluted with 18 mL of a 0.1% v/v aqueous solution of Tween® 20 surfactant to obtain spray solutions containing the highest application rate. Additional application rates were obtained by serial dilution of 12 mL of the high rate solution into a solution containing 3 mL of 97:3 v/v mixture of acetone and DMSO and 9 mL of the 0.1% v/v aqueous solution of Tween® 20 surfactant to obtain 1/2X, 1/4X, 1/8X and 1/16X rates of the high rate. Compound requirements are based upon a 12 mL application volume at a rate of 187 L/ha. Formulated compounds were applied to the soil surface with an overhead Mandel track sprayer equipped with a […] nozzles calibrated to deliver 187 L/ha over an application area of 0.503 square meters at a spray height of 18 inches (43 cm) above the soil surface. Control pots were sprayed in the same manner with the solvent blank. The treated pots and control pots were placed in a greenhouse maintained with an approximate 15 hour photoperiod and temperatures of about 23-29° C. during the day and 22-28° C. during the night. Nutrients and water were added on a regular basis and supplemental lighting was provided with overhead metal halide 1000-Watt lamps as necessary. The water was added by top-irrigation. After 20-22 days, the condition of the test plants that germinated and grew as compared with that of the untreated plants that emerged and grew was determined visually and scored on a scale of 0 to 100 percent where 0 corresponds to no injury and 100 corresponds to complete kill or no emergence.

Data set [5] deals with barnyardgrass (Echinochloa crus-galli). Kind of data set: General preemergence herbicidal activity, ECHCG. Format: in vivo. The conditions noted are these: 140 g ai/ha, applied to soil surface, visual score after 20-22 days, 0 = no injury, 100 = complete kill or no emergence, read-out: Pre-emergent Weed Control ECHCG.
Text: as §2

Data set [6] has as its system rice (Oryza sativa). In words: General preemergence herbicidal activity, ORYSA. Format: in vivo. As to conditions: 140 g ai/ha, applied to soil surface, visual score after 20-22 days, 0 = no injury, 100 = complete kill or no emergence, read-out: Pre-emergent Weed Control ORYSA.
Text: as §2

The test system of data set [7] is wild poinsettia (Euphorbia heterophylla). Kind of data set: General preemergence herbicidal activity, EPHHL. Format: in vivo. As to conditions: 140 g ai/ha, applied to soil surface, visual score after 20-22 days, 0 = no injury, 100 = complete kill or no emergence, read-out: Pre-emergent Weed Control EPHHL.
Text: as §2

Data set [8] has as its system lambsquarter (Chenopodium album). In words: General postemergence herbicidal activity, CHEAL. Format: in vivo. As to conditions: Chenopodium album, post-emergence, 336 h, postemergence spray, visual score after 14 days, 0 = no injury, 100 = complete kill, read-out: Post-emergent Weed Control CHEAL. The essentials:
as §1

Data set [9] deals with velvetleaf (Abutilon theophrasti). Kind of data set: General preemergence herbicidal activity, ABUTH. In kind it is in vivo. As to conditions: 140 g ai/ha, applied to soil surface, visual score after 20-22 days, 0 = no injury, 100 = complete kill or no emergence, read-out: Pre-emergent Weed Control ABUTH.
Text: as §2

Data set [10] deals with rice (Oryza sativa). In words: General postemergence herbicidal activity, ORYSA. Format: in vivo. As to conditions: Oryza sativa, post-emergence, 336 h, postemergence spray, visual score after 14 days, 0 = no injury, 100 = complete kill, read-out: Post-emergent Weed Control ORYSA. The essentials:
as §1

Turning to `C=Cc1c(N)nc(-c2ccc(Cl)c(C(C)F)c2F)nc1C(=O)OC` (stereo not drawn) [Compound 14, 6-amino-2-(4-chloro-2-fluoro-3-(1-fluoroethyl)phenyl)-5-vinylpyrimidine-4-carboxylic acid methyl ester], the melting point is 144 to 147 °C. For the same compound, the pest or weed control at 70 g/ha in data set [1] (70 g ai/ha) came to 100%. For the same compound, the pest or weed control at 70 g/ha in data set [2] (70 g ai/ha) turned out to be 100%. In addition, the pest or weed control at 70 g/ha in [3] (70 g ai/ha) was 100%. For the same compound, in data set [4], the pest or weed control at 140 g/ha worked out at 100%. In data set [5], the pest or weed control at 140 g/ha is 95%. Further, the plant injury at 140 g/ha in the data set on rice (Oryza sativa) [6] was 95%. Moreover, the pest or weed control at 140 g/ha in [7] turned out to be 100%. Besides, in data set [8] (70 g ai/ha), the pest or weed control at 70 g/ha was 100%. Also, the pest or weed control at 140 g/ha in data set [9] is 100%. In addition, in the data set on rice (Oryza sativa) [10] (70 g ai/ha), the plant injury at 70 g/ha is 10%.
`C=Cc1c(N)cc(-c2ccc(Cl)c(OC)c2F)nc1C(=O)OC` [Compound 28, 4-Amino-6-(4-chloro-2-fluoro-3-methoxyphenyl)-3-vinylpyridine-2-carboxylic acid methyl ester] registered a melting point of 118 to 121 °C. Moreover, in [1] (280 g ai/ha), the pest or weed control at 280 g/ha was 75%. For the same compound, the pest or weed control at 280 g/ha in [2] (280 g ai/ha) is 90%. In addition, the pest or weed control at 280 g/ha in [3] (280 g ai/ha) was 85%. For the same compound, the pest or weed control at 140 g/ha in data set [4] was 95%. Also, the pest or weed control at 140 g/ha in [5] was determined as 70%. Further, the plant injury at 140 g/ha in the data set with rice (Oryza sativa) [6] was determined as 20%. Further, the pest or weed control at 140 g/ha in [7] was found to be 100%. Also, the pest or weed control at 280 g/ha in data set [8] (280 g ai/ha) amounted to 75%. Moreover, in data set [9], the pest or weed control at 140 g/ha was determined as 95%. In addition, the plant injury at 280 g/ha in the data set with rice (Oryza sativa) [10] (280 g ai/ha) came out at 0%.
Regarding `COc1c(Cl)ccc(-c2nc(N)c(C)c(C(=O)O)n2)c1F` [Compound 53, 6-amino-2-(4-chloro-2-fluoro-3-methoxyphenyl)-5-methylpyrimidine-4-carboxylic acid], the melting point is 201 to 203 °C. Further, in data set [1] (140 g ai/ha), the pest or weed control at 140 g/ha stood at 90%. For the same compound, in data set [2] (140 g ai/ha), the pest or weed control at 140 g/ha amounted to 100%. Moreover, in [3] (140 g ai/ha), the pest or weed control at 140 g/ha was 90%. In addition, in data set [4], the pest or weed control at 140 g/ha turned out to be 100%. For the same compound, the pest or weed control at 140 g/ha in data set [5] is 80%. The plant injury at 140 g/ha with rice (Oryza sativa) [6] was 0%. Moreover, the pest or weed control at 140 g/ha in data set [7] stood at 100%. The pest or weed control at 140 g/ha in data set [8] (140 g ai/ha) came to 100%. For the same compound, the pest or weed control at 140 g/ha in [9] is 100%. Also, in the data set with rice (Oryza sativa) [10] (140 g ai/ha), the plant injury at 140 g/ha is 0%.

As a reminder, the melting point is the temperature of the solid-liquid transition.
